In test [1] the test system is primary cultures of neurons from spinal ganglia of chicken embryos. Description: Survival-promoting effect on primary nerve cell cultures (cellular LDH level). Conditions: neurons from spinal ganglia of chicken embryos (E10); cellular LDH level after 48 hours. In kind it is cell-based. Here is the method:
Primary Nerve Cell Cultures From Spinal Ganglia of Chicken Embryos (Embryo-Onal Development E10)
The preparation and cultivation is performed as described by Borasio G. D., John J., Wittinghofer A., Barde Y.-A., Sendtner M., Heumann R. (1989), Neuron 2, 1087-1096. To determine survival-promoting effects of active substances, determination of the cellular LDH level after an incubation time of 48 hours is employed. To this end, the culture medium is removed by tapping out the plate. Only the vital cells remain adhered to the bottom of the plate and can then be determined. To determine the LDH level, the LDH cytotoxicity test kit of Boehringer Mannheim (BM) is employed.
The cultures were used in duplicate in 96-well microtitration plates. On each plate, an NGF calibration curve is established in parallel, and the biological activity of the substances is expressed in pg/ml of NGF equivalents. As a low-molecular weight reference, the starurosporin derivative K252a is used in a parallel test in a concentration of 300 nmol/l.

Test [2] relates to primary osteoblasts. Description: Intracellular calcium release in primary osteoblasts (Fura-2). In kind it is cell-based, rat. To be noted: single primary osteoblasts, Fura-2, fluorescence microscope; FIG. 6. Here is the method:
The intracellular signal chain for calcium^2+is measured on individual osteoblast cells. The intracellular Ca^2+activity of primary osteoblasts is measured with the Ca^2+-sensitive dye Fura-2 (Calbiochem, Bad Soden, Germany). The primary osteoblasts are cultured for one to three days on glass supports (diameter 30 mm) attached to a perfusion chamber of an inverted microscope (Axiomat IDC-UV, Zeiss, Gottingen, Germany). […]
The incubation is followed by an equilibration period of 10 to 15 min in which the cells are washed with KHB solution at 37° C. with a perfusion rate of about 5 ml/min. The Fura-2-charged primary osteoblasts are measured at 340, 360 and 380 nm with a high speed filter wheel (rotational speed 10 Hertz), a single-photon counter tube (Hamamatsu, Herrsching, Germany) and a xenon quartz lamp (XBO 75 W/OFR, Zeiss, Germany) as a light/impulse source. The Fura-2 emission is measured through a long-wave filter at 510 nm with an Ultrafluar 125 ×glycerol immersion lens. […] The ratio of photon emissions upon excitation at 340 and 380 nm is evaluated. […] The raw data are calculated, and 10 neighboring data points are averaged to obtain a time resolution of 1 Hz. The fluorescence at 360 nm is used to test calcium activity. All samples are dissolved in a phosphate buffer prior to the experiment and measured for at least 1 to 2 minutes. […]

Test [3] relates to primary osteoblasts. Description: Proliferation assay on primary osteoblasts ([3H]thymidine or BrdU incorporation). Conditions: primary osteoblasts from fetal rat calvarias; serum-free medium with 1 mg/ml BSA; established for both native and synthetic peptide. In kind it is cell-based. As to the method:
The isolation of OB-CDGF was based on its biological activity in a proliferation assay of the primary osteoblasts. Thus, aliquots of each of the individual chromatographic stages described under Example 1 were freeze-dried and then subjected to a biological assay. The fractions which gave a positive signal were respectively subjected to further purification.
The assay measures the proliferation of the cells after having been kept in serum-free medium with 1 mg/ml bovine serum albumin, adding the samples and determining the incorporation of [^3H]thymidine or bromode-oxyuranosine (Brdu) after a further 48 hours. As a positive control, factors promoting bone growth, such as IGF or angiotensin, or fetal calf serum (FCS) are employed.
The experiments were performed by analogy with Pfeilschifter et al., Endocrinology 126, 703, 1990.
The recovery of primary osteoblasts was effected by sequential digestive separation from fetal rat calvarias using collagenase to obtain 5 cell fractions. The pooled cell fractions 3-5 were cultured in vitro. […]
At the end of the incubation time, the cell cultures were washed three times with 0.9% saline, and then 100 μl of liquid scintillator (OptiPhase Super-mix®, Wallac) was added to each well. Subsequently, the radioactivity incorporated in the DNA was measured in a liquid scintillation counter (1450 MicroBeta®, Wallac) in cpm. […]

The test system of a further test is MAP kinase. Kind of test: Western blot detection of intracellular MAP kinase in primary osteoblasts. To be noted: primary osteoblasts incubated for different periods of time; FIG. 7. In kind it is cell-based, rat. As to the method: As already shown under Example 5, intracellular calcium release can be induced on primary osteoblasts by incubation with CDGF. To further characterize this physiological response, the further intracellular signal pathway (downstream from calcium) was examined. One possible signal transduction cascade is the activation of MAP kinase, an enzyme which plays an essential role in the signal transduction from the cytoplasm into the nucleus. Signal transmission involves phosphorylation of the enzyme which can be detected with a specific antibody. Thus, this protein can be detected in a Western blot, which is a measure of both the phosphorylation and the expression due to the stimulus. Primary osteoblasts were incubated with cadherin or controls (FCS) for different periods of time. Expression of the enzyme (MAP kinase) in the cell was detected in the Western blot by the addition of the antibody. The results are represented in FIG. 7. […] The longer the stimulation with OB-CDGF, the more clearly could the band be discerned. […] Therefrom, it can be concluded that CDGF acts through calcium in a receptor-mediated way, and the further signal processing proceeds via MAP kinase.
On the technique in general: A western blot detects proteins with antibodies after separation by electrophoresis.

Test [4] relates to neonatal rat osteoblast monolayers. Description: Binding assay of 125I-labeled OB-CDGF to osteoblasts. Conditions: confluent layers and extracellular matrix of neonatal rat osteoblasts; 2 hours at 4° C.; FIG. 5. Here is the method:
The binding of the osteoproliferative peptides to neonatal rat osteoblast monolayers was effected with the use of ^125j-labeled peptides. Chloramine T was used for iodination. The specific activity of the peptides was 100,000 cpm/ng. The binding studies were performed on confluent layers and the extracellular matrix of a first passage of neonatal rat osteoblasts. The cells were incubated for 24 hours in serum-containing medium and then washed four times with PBS and incubated for 2 hoursat 4° C. in 250 μl of the assay buffer (20 mM HEPES, 0.1 mg/ml BSA, pH 7.0) with 80,000 cpm of the iodine-labeled peptide in the presence of different concentrations of the unlabeled peptide. The incubation buffer was then removed, and the cells washed four times with cold PBS and solubilized with 1 M NaOH. The cell-bound activity was determined using a gamma counter. The corresponding experimental results are represented in FIG. 5.

“TLSTPLSKRTSGFPAKKRALELSGNSKNELNRS (listed as Homo sapiens) [CAD6-CDGF, peptide corresponding to the CDGF region of cadherin-6]”: the “survival-promoting effect on primary neurons” value in test [1] was “survival-promoting effect on these primary neurons in a concentration-dependent way”.

For “QPQPQQTLATEPRENVIHLPGQRSHFQRV (listed as Homo sapiens) [BR-CDGF, peptide corresponding to the CDGF region of cadherin-12 (BR-cadherin; N-cadherin-2)]”, the “survival-promoting effect on primary neurons” value in test [1] is “survival-promoting effect on these primary neurons in a concentration-dependent way”.

For the sequence “ERRGHLRPSFHGHHEKGKEGQVLQRS (listed as Homo sapiens) [OB-CDGF, peptide purified from human hemofiltrate and resynthesized; human cadherin-11 precursor propeptide, amino acids 26-51]”, the intracellular calcium concentration entry in the test on primary osteoblasts [2] is listed as “intracellular calcium concentration increases”. Besides, the “growth-promoting effect on primary osteoblasts (proliferation)” value in the test with primary osteoblasts [3] is on record as “dose-dependent growth-promoting effect”. The “expression of intracellular MAP kinase (Western blot band)” value in the test on MAP kinase is “leads to expression of intracellular MAP kinase”. In addition, the “displacement of labeled OB-CDGF by unlabeled OB-CDGF (specific binding)” value in test [4] was “the level of specifically bound labeled OB-CDGF is reduced”.

These data come from US6809175B1, “Cadherin derived growth factor and its use” (Prof. Dr. Wolf-Georg Forssmann, priority 1997, dated 2004).
